Assay results as given in PubChem BioAssay AID1845216 (Molecular Pharmacology Branch, DTP, NCI, 2023).

Tested on: SW 982 tumor spheroid viability
Test: Anticancer human tumor SW 982 cell line growth inhibition;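 also: spheroids exposed to compound for 7 days before readout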
Details: spheroids with HUVEC and MSC; for IC50: curve of first compound; for viability, T/C: stronger effect = lower value
In short: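 Complex spheroids of malignant cells with endothelial cells and mesenchymal stem cells; agents alone or combined, from near clinical Cmax (or 10 microM if unknown) down in half-log steps, 0.25% DMSO final.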

Question: For `COc1ccc([C@@H](O)c2cc(-c3ncnc4cc(N5CCOCC5)ccc34)c(F)cc2Cl)nn1` + COc1cc2c(cc1O)CCNC21CSC2c3c(OC(C)=O)c(C)c4c(c3C(COC1=O)N1C(O)C3Cc5cc(C)c(OC)c(O)c5C(C21)N3C)OCO4, which IC50 (second compound 30 pM) is on record?
Answer: 7.19 µM

Question: What about the IC50 (second compound 94.9 pM) of the same molecule?
Answer: 4.6 µM

Question: What about the IC50 (second compound 0.0003 µM) of the same molecule?
Answer: 1.07 µM

Question: And the IC50 (second compound 0.000949 µM)?
Answer: < 0.0316 µM

Question: What about the IC50 (second compound 0.003 µM) of the same molecule?
Answer: < 0.0316 µM

Question: And the viability, T/C (second compound 30 pM, first compound 0.0316 µM)?
Answer: 102%

Question: And the viability, T/C (second compound 30 pM, first compound 0.1 µM)?
Answer: 102%

Question: And the viability, T/C (second compound 30 pM, first compound 0.316 µM)?
Answer: 96.4%

Question: What about the viability, T/C (second compound 30 pM, first compound 1 µM) of the same molecule?
Answer: 88.8%

Question: What about the viability, T/C (second compound 30 pM, first compound 3.16 µM) of the same molecule?
Answer: 79.6%

Question: And the viability, T/C (second compound 30 pM, first compound 10 µM)?
Answer: 38.8%

Question: And the viability, T/C (second compound 94.9 pM, first compound 0.0316 µM)?
Answer: 96.3%

Question: What about the viability, T/C (second compound 94.9 pM, first compound 0.1 µM) of the same molecule?
Answer: 97.3%

Question: And the viability, T/C (second compound 94.9 pM, first compound 0.316 µM)?
Answer: 93.4%

Question: And the viability, T/C (second compound 94.9 pM, first compound 1 µM)?
Answer: 70.8%

Question: And the viability, T/C (second compound 94.9 pM, first compound 3.16 µM)?
Answer: 65.9%

Question: And the viability, T/C (second compound 94.9 pM, first compound 10 µM)?
Answer: 26.9%

Question: What about the viability, T/C (second compound 0.0003 µM, first compound 0.0316 µM) of the same molecule?
Answer: 84.1%

Question: What about the viability, T/C (second compound 0.0003 µM, first compound 0.1 µM) of the same molecule?
Answer: 83.1%

Question: What about the viability, T/C (second compound 0.0003 µM, first compound 0.316 µM) of the same molecule?
Answer: 84%

Question: What about the viability, T/C (second compound 0.0003 µM, first compound 1 µM) of the same molecule?
Answer: 48%

Question: What about the viability, T/C (second compound 0.0003 µM, first compound 3.16 µM) of the same molecule?
Answer: 23.6%

Question: What about the viability, T/C (second compound 0.0003 µM, first compound 10 µM) of the same molecule?
Answer: 6.67%

Question: What about the viability, T/C (second compound 0.000949 µM, first compound 0.0316 µM) of the same molecule?
Answer: 36.2%

Question: And the viability, T/C (second compound 0.000949 µM, first compound 0.1 µM)?
Answer: 32.6%

Question: And the viability, T/C (second compound 0.000949 µM, first compound 0.316 µM)?
Answer: 19.4%

Question: What about the viability, T/C (second compound 0.000949 µM, first compound 1 µM) of the same molecule?
Answer: 4.23%

Question: What about the viability, T/C (second compound 0.000949 µM, first compound 3.16 µM) of the same molecule?
Answer: 0.86%

Question: What about the viability, T/C (second compound 0.000949 µM, first compound 10 µM) of the same molecule?
Answer: 0.73%

Question: What about the viability, T/C (second compound 0.003 µM, first compound 0.0316 µM) of the same molecule?
Answer: 0.88%

Question: And the viability, T/C (second compound 0.003 µM, first compound 0.1 µM)?
Answer: 0.57%

Question: And the viability, T/C (second compound 0.003 µM, first compound 0.316 µM)?
Answer: 0.41%

Question: And the viability, T/C (second compound 0.003 µM, first compound 1 µM)?
Answer: 1.06%

Question: What about the viability, T/C (second compound 0.003 µM, first compound 3.16 µM) of the same molecule?
Answer: 1.12%

Question: And the viability, T/C (second compound 0.003 µM, first compound 10 µM)?
Answer: 1.01%

Question: `Cc1cc(C)c(CNC(=O)c2cc(-c3ccc(CN4CCOCC4)cc3)cc3c2cnn3C2CCCC2)c(=O)[nH]1` + Cn1nnc2c(C(N)=O)ncn2c1=O was tested. Which IC50 (second compound 1 µM) did it give?
Answer: > 10 µM

Question: What about the IC50 (second compound 3.16 µM) of the same molecule?
Answer: > 10 µM

Question: And the IC50 (second compound 10 µM)?
Answer: > 10 µM

Question: What about the IC50 (second compound 31.6 µM) of the same molecule?
Answer: > 10 µM

Question: And the IC50 (second compound 100 µM)?
Answer: > 10 µM

Question: What about the viability, T/C (second compound 1 µM, first compound 0.0316 µM) of the same molecule?
Answer: 102%

Question: And the viability, T/C (second compound 1 µM, first compound 0.1 µM)?
Answer: 104%

Question: And the viability, T/C (second compound 1 µM, first compound 0.316 µM)?
Answer: 103%

Question: And the viability, T/C (second compound 1 µM, first compound 1 µM)?
Answer: 103%

Question: What about the viability, T/C (second compound 1 µM, first compound 3.16 µM) of the same molecule?
Answer: 92.1%

Question: And the viability, T/C (second compound 1 µM, first compound 10 µM)?
Answer: 91.2%

Question: And the viability, T/C (second compound 3.16 µM, first compound 0.0316 µM)?
Answer: 88.4%

Question: And the viability, T/C (second compound 3.16 µM, first compound 0.1 µM)?
Answer: 99.2%

Question: And the viability, T/C (second compound 3.16 µM, first compound 0.316 µM)?
Answer: 101%

Question: And the viability, T/C (second compound 3.16 µM, first compound 1 µM)?
Answer: 96.6%

Question: And the viability, T/C (second compound 3.16 µM, first compound 3.16 µM)?
Answer: 92.3%

Question: And the viability, T/C (second compound 3.16 µM, first compound 10 µM)?
Answer: 70.6%

Question: And the viability, T/C (second compound 10 µM, first compound 0.0316 µM)?
Answer: 86.7%

Question: And the viability, T/C (second compound 10 µM, first compound 0.1 µM)?
Answer: 82.6%

Question: And the viability, T/C (second compound 10 µM, first compound 0.316 µM)?
Answer: 81.3%

Question: And the viability, T/C (second compound 10 µM, first compound 1 µM)?
Answer: 82.8%

Question: And the viability, T/C (second compound 10 µM, first compound 3.16 µM)?
Answer: 82.2%

Question: What about the viability, T/C (second compound 10 µM, first compound 10 µM) of the same molecule?
Answer: 53.4%

Question: What about the viability, T/C (second compound 31.6 µM, first compound 0.0316 µM) of the same molecule?
Answer: 73.8%

Question: What about the viability, T/C (second compound 31.6 µM, first compound 0.1 µM) of the same molecule?
Answer: 69%

Question: What about the viability, T/C (second compound 31.6 µM, first compound 0.316 µM) of the same molecule?
Answer: 74.9%

Question: And the viability, T/C (second compound 31.6 µM, first compound 1 µM)?
Answer: 73.5%

Question: And the viability, T/C (second compound 31.6 µM, first compound 3.16 µM)?
Answer: 74.4%

Question: What about the viability, T/C (second compound 31.6 µM, first compound 10 µM) of the same molecule?
Answer: 58.7%

Question: And the viability, T/C (second compound 100 µM, first compound 0.0316 µM)?
Answer: 58.9%

Question: What about the viability, T/C (second compound 100 µM, first compound 0.1 µM) of the same molecule?
Answer: 63%

Question: And the viability, T/C (second compound 100 µM, first compound 0.316 µM)?
Answer: 57.7%

Question: What about the viability, T/C (second compound 100 µM, first compound 1 µM) of the same molecule?
Answer: 63.5%

Question: What about the viability, T/C (second compound 100 µM, first compound 3.16 µM) of the same molecule?
Answer: 55.3%

Question: And the viability, T/C (second compound 100 µM, first compound 10 µM)?
Answer: 53.8%
